For 26 compounds, AC1.4 results are on record in patent US11780826B2 (Amgen Inc., priority 2017, dated 2023).

The test system of this test is Bovine cardiac myofibrils. Nature of the test: In vitro model of dose-dependent myofibril ATPase modulation (AC1.4, pyruvate kinase/lactate dehydrogenase-coupled ATPase assay at pCa25). Format: biochemical. The following applies: concentration at which ATPase activity was 1.4-fold higher than the bottom of the dose curve, mean of a minimum of two independent tests. An outline of the steps:
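Compound dilutions were premixed with myofibrils, coupling enzymes, EGTA and CaCl2, then the reaction was started with an equal volume carrying ATP (final 1 mM), NADH and PEP. ATP turnover was followed at 340 nm, and dose responses were fit to a four-parameter equation.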
Regarding `N#CC1CN(S(=O)(=O)N2CCC(F)(F)[C@H](C(=O)N3CCC[C@@H]3C(=O)NCc3ccc(C(F)(F)F)cc3)C2)C1` [Example 143, 1-(((3S)-1-((3-cyano-1-azetidinyl)sulfonyl)-4,4-difluoro-3-piperidinyl)carbonyl)-N-(4-(trifluoromethyl)benzyl)-D-prolinamide], the AC1.4 is 0.244 µM.
Consider `CS(=O)(=O)c1cncc(C(=O)N2CSC[C@@H]2C(=O)N[C@@H](c2ccc(C(F)(F)F)cc2F)C2CC2)c1` [Example 342, (4S)-N-((R)-cyclopropyl(2-fluoro-4-(trifluoromethyl)phenyl)methyl)-3-((5-(methylsulfonyl)-3-pyridinyl)carbonyl)-1,3-thiazolidine-4-carboxamide], for which the AC1.4 turned out to be 0.9661 µM.
The compound `O=C(NCc1ccc(C(F)(F)F)cc1)[C@H]1CCCN1C(=O)c1cccc(S(=O)(=O)N2CC[C@@H](O)C2)c1` [Example 560, 1-((3-(((3R)-3-hydroxy-1-pyrrolidinyl)sulfonyl)phenyl)carbonyl)-N-(4-(trifluoromethyl)benzyl)-D-prolinamide,1-((3-(((3S)-3-hydroxy-1-pyrrolidinyl)sulfonyl)phenyl)carbonyl)-N-(4-(trifluoromethyl)benzyl)-D-prolinamide] showed an AC1.4 of 2.9638 µM.
`C[C@@H](NC(=O)[C@H]1CCCN1C(=O)[C@@H]1CN(S(=O)(=O)N2CC(C#N)C2)CCO1)c1ccc(Cl)cc1` [Example 291, N-((1R)-1-(4-chlorophenyl)ethyl)-1-(((2S)-4-((3-cyano-1-azetidinyl)sulfonyl)-2-morpholinyl)carbonyl)-D-prolinamide] displayed an AC1.4 of 0.756 µM.
`N#Cc1cccc(C(=O)N2[C@@H](C(=O)N[C@@H](c3ccc(C(F)(F)F)cc3F)C3COC3)C[C@H]3C[C@H]32)c1` [Example 366, (1R,3R,5R)-2-(3-cyanobenzoyl)-N-((R)-(2-fluoro-4-(trifluoromethyl)phenyl)(3-oxetanyl)methyl)-2-azabicyclo[3.1.0]hexane-3-carboxamide] yielded an AC1.4 of 1.1445 µM.
The compound `O=C(NCc1ccc(C(F)(F)F)cc1)[C@H]1CCCN1C(=O)[C@H]1CCCN(S(=O)(=O)C2CCOC2)C1` (stereo partly drawn) [Example 766, (2R)-1-((3S)-1-((tetrahydrofuran-3-yl)sulfonyl)piperidine-3-carbonyl)-N-(4-(trifluoromethyl)benzyl)pyrrolidine-2-carboxamide] returned an AC1.4 of 7.933 µM.
Compound `COC(=O)CNS(=O)(=O)c1cccc(C(=O)N2CCC[C@@H]2C(=O)NCc2ccc(C(F)(F)F)cc2)c1` [Example 764, methyl N-((3-(((2R)-2-((4-(trifluoromethyl)benzyl)carbamoyl)-1-pyrrolidinyl)carbonyl)phenyl)sulfonyl)glycinate] showed an AC1.4 of 7.912 µM.
`O=C(N[C@@H](c1cc(F)c(Cl)cc1F)C1CC1)[C@H]1C[C@@H](O)CN1C(=O)c1ccnc(C(F)(F)F)c1` [Example 397, (4R)-N-((R)-(4-chloro-2,5-difluorophenyl)(cyclopropyl)methyl)-4-hydroxy-1-((2-(trifluoromethyl)-4-pyridinyl)carbonyl)-D-prolinamide] had an AC1.4 of 1.361 µM.
For `O=C(N[C@@H](c1ccc(C(F)(F)F)cc1F)C1CC1)[C@H]1CCCCN1C(=O)c1cccc(C(O)(O)C(F)(F)F)c1` [Example 322, (2R)-N-((R)-cyclopropyl(2-fluoro-4-(trifluoromethyl)phenyl)methyl)-1-(3-(2,2,2-trifluoro-1,1-dihydroxyethyl)benzoyl)-2-piperidinecarboxamide] the value was 0.8731 µM; for `O=C(N[C@@H](c1ccc(C(F)(F)F)cc1F)C1CC1)[C@H]1C[C@H]2C[C@H]2N1C(=O)c1cccc(S(=O)(=O)C2CC2)c1` [Example 211, (1R,3R,5R)-N-((R)-cyclopropyl(2-fluoro-4-(trifluoromethyl)phenyl)methyl)-2-(3-(cyclopropylsulfonyl)benzoyl)-2-azabicyclo[3.1.0]hexane-3-carboxamide], 0.4488 µM; for `COC1CN(S(=O)(=O)c2cccc(C(=O)N3CCC[C@@H]3C(=O)NCc3ccc(C(F)(F)F)cc3)c2)C1` [Example 258, 1-((3-((3-methoxy-1-azetidinyl)sulfonyl)phenyl)carbonyl)-N-(4-(trifluoromethyl)benzyl)-D-prolinamide], 0.6326 µM.
In the case of `CC1(O)CN(S(=O)(=O)N2CCC[C@H](C(=O)N3CCC[C@@H]3C(=O)NCc3ccc(Cl)c(F)c3)C2)C1` [Example 663, N-(4-chloro-3-fluorobenzyl)-1-(((3S)-1-((3-hydroxy-3-methyl-1-azetidinyl)sulfonyl)-3-piperidinyl)carbonyl)-D-prolinamide], the AC1.4 was determined as 4.6285 µM.
`N#CC1CN(S(=O)(=O)N2CCC[C@H](C(=O)N3CCC[C@@H]3C(=O)N[C@@H](c3cc(F)c(Cl)cc3F)C3CC3)C2)C1` [Example 39, N-((R)-(4-chloro-2,5-difluorophenyl)(cyclopropyl)methyl)-1-(((3S)-1-((3-cyano-1-azetidinyl)sulfonyl)-3-piperidinyl)carbonyl)-D-prolinamide] came in with an AC1.4 of 0.0394 µM.
On to `O=C(NC1CN(S(=O)(=O)N2CCC[C@H](C(=O)N3CCC[C@@H]3C(=O)NCc3ccc(C(F)(F)F)cc3)C2)C1)C1CCC1` [Example 754, 1-(((3S)-1-((3-((cyclobutylcarbonyl)amino)-1-azetidinyl)sulfonyl)-3-piperidinyl)carbonyl)-N-(4-(trifluoromethyl)benzyl)-D-prolinamide], for which the AC1.4 came to 7.453 µM.
`CS(=O)(=O)c1cccc(C(=O)N2CC=C[C@@H]2C(=O)N[C@@H](c2ccc(C(F)(F)F)cc2F)C2CC2)c1` [Example 401, (2R)-N-((R)-cyclopropyl(2-fluoro-4-(trifluoromethyl)phenyl)methyl)-1-(3-(methylsulfonyl)benzoyl)-2,5-dihydro-1H-pyrrole-2-carboxamide] had an AC1.4 of 1.378 µM.
As to `N#CC1CN(S(=O)(=O)N2CCC[C@H](C(=O)N3CCC[C@@H]3C(=O)NCc3ccccc3F)C2)C1` [Example 684, 1-(((3S)-1-((3-cyano-1-azetidinyl)sulfonyl)-3-piperidinyl)carbonyl)-N-(2-fluorobenzyl)-D-prolinamide], the AC1.4 was found to be 5.1985 µM.
Take `N#CC1CN(S(=O)(=O)N2CCC[C@H](C(=O)N3CCC[C@@H]3C(=O)NCc3ccc(F)cc3F)C2)C1` [Example 360, 1-(((3S)-1-((3-cyano-1-azetidinyl)sulfonyl)-3-piperidinyl)carbonyl)-N-(2,4-difluorobenzyl)-D-prolinamide]: the AC1.4 came out at 1.11 µM.
Then `O=C(N[C@@H](c1cc(F)c(Cl)cc1F)C1CC1)[C@H]1C[C@H]2C[C@H]2N1C(=O)c1cc(C(F)(F)F)ccn1` [Example 266, (1R,3R,5R)-N-((R)-(4-chloro-2,5-difluorophenyl)(cyclopropyl)methyl)-2-((4-(trifluoromethyl)-2-pyridinyl)carbonyl)-2-azabicyclo[3.1.0]hexane-3-carboxamide], with 0.6674 µM.
The compound `O=C(N[C@@H](c1ccc(C(F)(F)F)cc1F)C1CC1)[C@H]1CCCN1C(=O)c1cccc(C2CC2)c1` [Example 369, 1-(3-cyclopropylbenzoyl)-N-((R)-cyclopropyl(2-fluoro-4-(trifluoromethyl)phenyl)methyl)-D-prolinamide] came in with an AC1.4 of 1.1795 µM.
Consider `CCc1ccnc(C(=O)N2[C@@H](C(=O)N[C@@H](c3cc(F)c(Cl)cc3F)C3COC3)C[C@H]3C[C@H]32)c1` [Example 555, (1R,3R,5R)-N-((R)-(4-chloro-2,5-difluorophenyl)(3-oxetanyl)methyl)-2-((4-ethyl-2-pyridinyl)carbonyl)-2-azabicyclo[3.1.0]hexane-3-carboxamide], for which the AC1.4 worked out at 2.893 µM.
For `O=C(NCc1ccc(C(F)(F)F)cc1)[C@H]1CCCN1C(=O)[C@H]1CCCN(S(=O)(=O)N2CC(c3ccon3)C2)C1` [Example 227, 1-(((3S)-1-((3-(1,2-oxazol-3-yl)-1-azetidinyl)sulfonyl)-3-piperidinyl)carbonyl)-N-(4-(trifluoromethyl)benzyl)-D-prolinamide] the value was 0.4927 µM.
Then `CC(C)C[C@@H](NC(=O)[C@H]1CCCN1C(=O)c1cccc(S(=O)(=O)N2CC(C#N)C2)c1)c1ccc(C(F)(F)F)cc1` [Example 45, 1-(3-((3-cyano-1-azetidinyl)sulfonyl)benzoyl)-N-((1R)-3-methyl-1-(4-(trifluoromethyl)phenyl)butyl)-D-prolinamide], with 0.0435 µM.
Then `N#CC1CN(S(=O)(=O)N2CCC[C@H](C(=O)N3CCC[C@@H]3C(=O)NCc3cc(F)cc(Cl)c3)C2)C1` [Example 313, N-(3-chloro-5-fluorobenzyl)-1-(((3S)-1-((3-cyano-1-azetidinyl)sulfonyl)-3-piperidinyl)carbonyl)-D-prolinamide], with 0.8424 µM; and `CCCCCC1CN(S(=O)(=O)N2CCC[C@H](C(=O)N3CCC[C@@H]3C(=O)NCc3ccc(C(F)(F)F)cc3)C2)C1` [Example 735, 1-(((3S)-1-((3-pentyl-1-azetidinyl)sulfonyl)-3-piperidinyl)carbonyl)-N-(4-(trifluoromethyl)benzyl)-D-prolinamide], with 7.0265 µM.
`O=C(NCc1ccc(C(F)(F)F)cc1)[C@H]1CCCN1C(=O)c1cccc(S(=O)(=O)N2CC3(CC3)C2)c1` [Example 350, 1-((3-(5-azaspiro[2.3]hex-5-ylsulfonyl)phenyl)carbonyl)-N-(4-(trifluoromethyl)benzyl)-D-prolinamide]: the AC1.4 came to 1.0349 µM.
On to `Cc1cc(C(=O)N2[C@@H](C(=O)N[C@@H](c3cc(F)c(Cl)cc3F)C3COC3)C[C@H]3C[C@H]32)cc(C)n1` [Example 603, (1R,3R,5R)-N-((R)-(4-chloro-2,5-difluorophenyl)(3-oxetanyl)methyl)-2-((2,6-dimethyl-4-pyridinyl)carbonyl)-2-azabicyclo[3.1.0]hexane-3-carboxamide], for which the AC1.4 worked out at 3.6775 µM.
